Data from patent publication US20120283269A1, “Method and Compositions for Suppression of Aging” (HEALTH RESEARCH INC., priority 2009, published 2012).

What was measured:
[1] = test system: mTOR pathway; assay: Immunoblot for p53, p-S6, p-S6K in WI-38-tert fibroblasts; type: cell-based, human
Method: (§1) FIG. 4. […] HT-p21-a cells were treated with IPTG and infected with Ad-p53. After 3 days, cells were photographed (original magnification ×200): Upper panel. Under blue light to visualize cells expressing p53 (green cells). Lower panel. Under visible light to visualize all cells. Red arrows indicate cells lacking p53 expression. All of these cells show large, flat cell morphology. Green arrows indicate cells expressing p53. b-d. […] After 1 day, cells were lysed and immunoblot was performed as described in Methods for Example 1. c. […] Cells were then stained for beta-Gal activity and microphotographed. Scale bar—50 μm.d. […] Cells were then trypsinized and counted. […] Results are shown as percent of control.
FIG. 12. […] Immunoblot for p53, p-S6, p-S6K, S6 and actin was performed as described in Methods for Example 1.
Immunoblot analysis. Proteins were separated on 4-15% gradient Tris-HCl gels (Bio-Rad). The following antibodies were used: mouse anti-actin from Santa Cruz Biotechnology, rabbit anti-phospho-S6 (Ser240/244) and (Ser235/236), mouse anti-S6, mouse anti-phospho-p70 S6 kinase (Thr389), mouse anti-p21 and anti-p53, rabbit anti-phospho-4E-BP1 (Thr37/46) from Cell Signaling; mouse anti-4E-BP1 from Invitrogen, mouse anti-p53 (Ab-6) from Calbiochem.

[2] = test system: WI-38-tert cells; assay: Senescence / quiescence in WI-38-tert fibroblasts; type: cell-based, human; conditions: compound alone
Method: as §1
FIG. 11. Effects of Ad-p21 and Ad-p53 on senescent morphology in WI-38-tert fibroblasts. WI-38-tert cells were infected with either p21-expressing adenovirus (Ad-p21) or p53-expressing adenovirus (Ad-p53) or both. After 3 days, cells were stained for beta-Gal.
Cell lines and reagents. HT-p21-9 and HT-p21-a cells are derivatives of HT1080 human fibrosarcoma cells, where p21 expression can be turned on or off using isopropyl-thio-galactosidase (IPTG) (7, 16, 28, 29, 36). […] HT-p16 cells are derivatives of HT1080 cells in which p16 expression can be turned on or off using IPTG (16, 36). WI-38-Tert, WI-38 are fibroblasts immortalized by telomerase. HT-p21-GSE56 cells: p53 inhibiting peptide GSE56 (18) was introduced into HT1080 p21-9 cells via a retroviral vector LXSE (37). Cells were grown in high glucose DMEM with 10% FC2 serum. WI-38-tert cells were grown in low glucose DMEM with 10% FCS. Rapamycin was obtained from LC Laboratories (Woburn, Mass.). IPTG (final concentration of 50 μg/ml) and FC2 were obtained from Sigma-Aldrich (St. Louis, Mo.).
Beta-galactosidase staining Beta-gal staining was performed using Senescence-galactosidase staining kit (Cell Signaling Technology).

[3] = test system: HT-p21 cells; assay: Cellular hypertrophy (protein and GFP per cell) in IPTG-treated HT-p21 cells, rapamycin dose response; type: cell-based, human; conditions: this particular cell line
Method: (§2) FIG. 18. Correlation between S6 phosphorylation, hypertrophy and loss of proliferative potential in senescent cells. HT-p21 cells were plated in 6 well plates and treated with IPTG plus the increasing concentrations of rapamycin (from 0.16 to 500 nM). At concentration 0, cells were treated with IPTG alone. A. Cellular hypertrophy: protein and GFP. After 3 days, soluble protein and GFP were measured per well. [Note: in non-proliferating cells, protein/well is a measure of protein/cells]. Results are shown as percent of IPTG alone (0) without rapamycin. B. After 3 days, cells were lysed and immunobloted for p-S6, S6 and p21.
Cell lines and reagents. In HT-p21 cells, p21 expression can be turned on or off using […] (IPTG). HT-p21 cells were cultured in DMEM medium supplemented with FC2 serum. Rapamycin was obtained from LC Laboratories and dissolved in DMSO as 2 mM solution and was used at final concentration of 500 nM, unless otherwise indicated. IPTG and FC2 were obtained from Sigma-Aldrich (St. Louis, Mo.). IPTG was dissolved in water as 50 mg/ml stock solution and used in cell culture at final concentration of 50 μg/ml.

[4] = test system: HT-p21 cells; assay: Colony formation assay after IPTG with or without rapamycin; type: cell-based, human; conditions: IPTG plus rapamycin 3 days, washed; versus IPTG alone
[5] = test system: S6 phosphorylation, a marker of mTOR activity; assay: Immunoblot for p-S6, S6 and p21 in IPTG-treated HT-p21 cells, rapamycin; type: cell-based, human; conditions: IPTG plus rapamycin, 3 days
Method: as §2
FIG. 24. Induction of p21 by IPTG. HT-p21 cells were plated in 6 well plates and treated with IPTG with or without rapamycin as indicated. The next day, cells were lysed and immunoblot for p-S6, S and p21 was performed as described in Methods.
Immunoblot analysis. Cells were lysed and soluble proteins were harvested as previously described. […] Cells were counted on a Coulter Z1 cell counter (Hialeah, Fla.). […] Plates were photographed and the number of colonies were determined as previously described. […] Thereafter, cells were washed in PBS, and the number of -galactosidase activity-positive cells (blue staining) were counted under bright field illumination.

[6] = test system: HT-p21 cells; assay: Preservation of proliferative competence (PC), cell counting after wash; type: cell-based, human
Method: C. PC: preservation of proliferative competence. After 3 days, cells were washed to remove IPTG and RAPA. Cells were incubated for additional 5 days in the fresh medium and then were counted. Results are shown as percent of IPTG alone (0) without rapamycin.
FIG. 20. The dynamics of cell numbers. 500 HT-p21 cells were plated in 12 well plates. On the next day, either IPTG alone (I) or IPTG plus rapamycin (I+R) were added. After 3 days, plates were washed (I/w and I+R/w) or left unwashed. Cells were counted at days 1, 3, 6 and 9. Upper panel: linear-scale. Lower panel: log-scale. Open and closed squares: IPTG and IPTG plus Rapa, respectively. Open and closed circles: IPTG washed (I/w) and IPTG plus Rapa washed (I+R/w), respectively.
Immunoblot analysis. Cells were lysed and soluble proteins were harvested as previously described. Immunoblot analysis was performed using mouse monoclonal anti-p21, mouse monoclonal anti-phospho-S6 Ser240/244 (Cell Signaling, MA, USA), rabbit polyclonal anti-S6 (Cell Signaling, MA, USA) and mouse monoclonal anti-tubulin Ab as previously described. Cell counting. Cells were counted on a Coulter Z1 cell counter (Hialeah, Fla.). […] Plates were photographed and the number of colonies were determined as previously described. […] Thereafter, cells were washed in PBS, and the number of -galactosidase activity-positive cells (blue staining) were counted under bright field illumination.

[7] = test system: mTOR pathway; conditions: previously reported (Demidenko 2009); cited from earlier work
[8] = test system: HT-p21-9 cells; conditions: previously reported (Demidenko 2009); cited from earlier work

COc1cccc2c1C(=O)c1c(O)c3c(c(O)c1C2=O)C[C@@](O)(C(=O)CO)C[C@@H]3O[C@H]1C[C@H](N)[C@H](O)[C@H](C)O1 [doxorubicin]
inhibition of mTOR [1]: does not inhibit mTOR | type of arrest in WI-38-tert cells [2]: caused senescence in WI-38-tert cells

CO[C@H]1C[C@@H]2CC[C@@H](C)[C@@](O)(O2)C(=O)C(=O)N2CCCC[C@H]2C(=O)O[C@H]([C@H](C)C[C@@H]2CC[C@@H](O)[C@H](OC)C2)CC(=O)[C@H](C)/C=C(\C)[C@@H](O)[C@@H](OC)C(=O)[C@H](C)C[C@H](C)/C=C/C=C/C=C/1C [rapamycin]
concentration required for anti-hypertrophic effects [3]: 100 to 500 nM | increase in number of colonies (number of competent cells) [4]: ~10 fold | concentrations that inhibited S6 phosphorylation [5]: ≥ 20 nM | doubling time of the competent cells ([6]; I/w and I+R/w conditions): 20 to 24 h | PC (preservation of competence) ([6]; IPTG plus rapamycin 3 days, washed, 5 more days, percent of IPTG alone): 800%

N#CC(=C(/N)Sc1ccccc1N)/C(C#N)=C(\N)Sc1ccccc1N [U0126]
mTOR pathway in HT-p21-9 cells, measured by phosphorylation of S6 [7]: deactivate the mTOR pathway | cellular senescence [8]: suppress cellular senescence
